Experimental data published in publication PMC12257544, “Fluorescent Isostere (Fluostere) of the Carboxylate: Design of hDHODH Fluorescent Inhibitors as Proof of Concept” (Journal of Medicinal Chemistry, 2025).
Where “and” joins values, the source holds several entries; their conditions need not be identical. Equal values may be shown once. Read-outs that look alike come from different tables or passages of the source.

Key:
hDHODH = hDHODH (Homo sapiens, UniProt Q02127); test: Fluorescence emission of the compound in the presence of recombinant hDHODH; type: binding; conditions: compound 1 μM, hDHODH 31.5 to 504 nM, TRIS pH 8
hDHODH, sequence (Q02127 whole entry): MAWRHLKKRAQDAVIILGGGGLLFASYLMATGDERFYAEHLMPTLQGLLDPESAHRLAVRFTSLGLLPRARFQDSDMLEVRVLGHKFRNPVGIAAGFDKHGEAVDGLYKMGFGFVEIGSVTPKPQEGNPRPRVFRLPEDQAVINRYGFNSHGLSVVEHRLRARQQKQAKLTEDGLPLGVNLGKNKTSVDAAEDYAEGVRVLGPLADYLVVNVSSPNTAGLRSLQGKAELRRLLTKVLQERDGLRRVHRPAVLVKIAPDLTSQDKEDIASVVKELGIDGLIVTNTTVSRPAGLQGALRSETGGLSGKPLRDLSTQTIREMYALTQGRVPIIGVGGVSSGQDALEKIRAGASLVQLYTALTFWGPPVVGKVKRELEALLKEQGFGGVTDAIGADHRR
Protocol: In particular, we observed an increase in fluorescence intensity in correlation with the growing amount of protein, as shown in Figure .
UV–Vis absorption spectra were recorded on a Cary60 spectrometer. Photoemission spectra, luminescence lifetimes, and quantum yields were acquired with a HORIBA Jobin Yvon IBH Fluorolog-TCSPC spectrofluorometer equipped with a Quanta-φ integrating sphere. […] Emission-decay data were collected in 2048 channels to 10000 counts in the peak channel. IRF was measures using colloidal silica suspension in H2O to scatter light. Data were analyzed with the software DAS6 (TCSPC decay-analysis software) using a nonlinear least-squares method to fit of the decay to a sum of exponentials. The value of χ^2, residuals and the autocorrelation function (Durbin-Watson parameter) were used to determine the quality of the fit. […] After 5 min incubation UV–Vis absorption spectra were recorded on a Cary60 spectrophotometer and photoemission spectra were acquired with a HORIBA Jobin Yvon IBH Fluorolog-TCSPC spectrofluorometer with excitation λ of 366 nm and maximum of emission at 500 nm; a.u. data were analyzed with GraphPad Prism using One Site – Specific Binding equation.

THP1 cells = test: Annexin V apoptosis assay; type: cell-based, human
Protocol: After 3 days of culture, the apoptotic assay was performed using the Annexin V-FITC Kit (Miltenyi Biotec, Italy), according to the manufacturer's instructions. The apoptotic cells were acquired on […] and analyzed using Kaluza software version 2.1 (Beckman Coulter, Fullerton, CA).

HCT-8 cells [1] = test: Confocal Red-MitoTracker co-localization; type: cell-based, human; conditions: 10 μM, 24 h
Protocol: Co-localization experiments were performed to examine whether compound 11a may reach the cellular compartment where hDHODH is located. For this, a specific mitochondrial stain marker in the two cell lines in which the biological activities of 11a were observed, namely THP-1 and HCT-8 cells, was used. The compound was therefore incubated with THP-1 cells (Figure ) or HTC-8 cells (Figure ) at 37 °C for 24 h. Then, cells were stained with Red-MitoTracker (a specific fluorescent probe for mitochondrial targeting) for 30 min at 37 °C.
For fluorescence analysis, 10 μM of target compounds were incubated with THP-1 for 24 h. After washing the cells with a PBS buffer solution, they were analyzed under confocal microscopy imaging technique using the appropriate laser to excite the molecule. For the colocalization experiments, HCT-8 cells (55,000 cells/well) were plated on μ-Slide 8 well high glass bottom (IBIDI, Gräfelfing, Germany) and treated for 24 h with 10 μM of 11a at 37 °C. Then, cells were stained with MitoTracker Red CMXRos (ThermoFischer, Carlsbad, CA, USA) (1:4000) for 30′ at 37 °C and after washing with PBS buffer solution, cells were visualized with a Leica TCS SP5 multiphoton-inverted confocal microscope equipped with LAS AF matrix software. Live cells were imaged using an HCX PL APO 63×/1.4 NA oil immersion objective. […]

[2] = Cytotoxicity assay (CellTiter-Glo); type: cell-based; conditions: human, MRC-5 cells; 72 h incubation; read-out: MRC-5 CC50 (C.L. 95 %)
Protocol: (§1) After 72 h of incubation, the number of viable cells was determined using the CellTiter-Glo Luminescent assay (Promega, Milan, Italy). The cytotoxicity of the tested compounds was expressed as cytotoxic concentration (CC50).

[3] = Photophysical characterization (absorption, emission, QY, lifetime); type: physicochemical
Protocol: UV–Vis absorption spectra were recorded on a Cary60 spectrometer. Photoemission spectra, luminescence lifetimes, and quantum yields were acquired with a HORIBA Jobin Yvon IBH Fluorolog-TCSPC spectrofluorometer equipped with a Quanta-φ integrating sphere. […] Emission-decay data were collected in 2048 channels to 10000 counts in the peak channel. IRF was measures using colloidal silica suspension in H2O to scatter light. Data were analyzed with the software DAS6 (TCSPC decay-analysis software) using a nonlinear least-squares method to fit of the decay to a sum of exponentials. The value of χ^2, residuals and the autocorrelation function (Durbin-Watson parameter) were used to determine the quality of the fit. For measurements in the presence of hDHODH, 11a was incubated, at 1 μM concentration in TRIS Buffer 0.1 mM (pH 8) with 0.1% DMSO, alone or with different concentrations of recombinant protein ranging from 31.5 to 504 nM concentration. After 5 min incubation UV–Vis absorption spectra were recorded on a Cary60 spectrophotometer and photoemission spectra were acquired with a HORIBA Jobin Yvon IBH Fluorolog-TCSPC spectrofluorometer with excitation λ of 366 nm and maximum of emission at 500 nm; a.u. data were analyzed with GraphPad Prism using One Site – Specific Binding equation.

[4] = test system: unrelated GST-conjugated-protein; test: Fluorescence control with an unrelated GST-conjugated protein; type: binding; conditions: fixed amount of compound, increasing protein concentration
Protocol: Because the isolated hDHODH used for the previous measurements, and in inhibition enzymatic assay, is the GST-tagged protein, we decided to confirm that the observed fluorescence enhancement resulted from specific binding of inhibitor 11a to the target protein and not from nonspecific interactions with the GST portion.
Apoptosis test rescue with uridine:
Figure S4. A) Analysis of the apoptotic rate induced by compound 11a, on THP-1 cell line (n = 3) with or without exogenous uridine at 100 µM. Compounds were utilized at 1 µM; apoptotic was evaluated after 3 days of treatment. DMSO: dimethyl sulfoxide. Cpd: compound. Ur: uridine. Statistical significance: Student’s t test: **p<0.01. B) Representative Annexin V-FITC/PI flow cytometry dot plots of THP-1 cells after 3 days of treatment in presence of vehicle (left), compound 11a (middle), compound 11a and uridine 100 µM. Data are representative of 3 independent experiments.
Figure S5. Fluorescence-based analysis of the potential contribution of GST-tag to the emission restoration of compound 11a. […]
increasing concentration versus a fixed amount of compound 11a. […]
show protein-dependent fluorescence restoration. […]

[5] = Cytotoxicity assay (CellTiter-Glo); type: cell-based, human; conditions: human, HCT-8 cells (uninfected), uninfected HCT-8 cells
Protocol: as §1

HCT-8 cells [6] = test: Cytotoxicity assay (CellTiter-Glo); type: cell-based, human; conditions: uninfected HCT-8 cells, 72 h
Protocol: as §1

THP-1 cells = test: Co-localization competition assay with Bay2402234 (Manders coefficient); type: cell-based, human; conditions: 10 μM each, 3 h, Manders coefficient, Welch's t test p = 0.0024
Protocol: Colocalization between hDHODH inhibitors and mitochondria was quantified using Manders coefficient (Figure D).
THP-1 cells were incubated for 3 h with hDHODHi 11a and Bay240223410 at 10 μM, either alone or in combination. After incubation, the cells were washed and stained with Red-MitoTracker CMXRos (Thermo Fisher, Carlsbad, CA, USA) at a concentration of 100 nM for 30 min at 37 °C. Cells were imaged with a Leica TCS SP8 confocal system (Leica Microsystems) equipped with 4 excitation lasers (405 Diode, Argon, DPSS561, HeNe633). Images were acquired with a HCX PL APO 63×/1.4 NA oil-immersion objective with a resolution of 81 nm × 81 nm and were processed and analyzed with ImageJ software (Rasband, W.S., U.S. National Institutes of Health, Bethesda, […]). In particular, colocalization was analyzed with JACoP plugin and Manders’ coefficient was calculated

## Oc1nn2ccccc2c1/C=C/c1c(F)c(F)c(-c2ccccc2)c(F)c1F [Compound 11a, (E)-3-(2-(2,3,5,6-Tetrafluoro-[1,1’-biphenyl]-4-yl)vinyl)pyrazolo[1,5-a]pyridin-2-ol]
hDHODH
  fluorescence in the presence of the recombinant protein: restoration of fluorescence
THP1 cells; Homo sapiens, THP-1, 72 h, 3 days of culture, Annexin V-FITC, read-out: Apoptosis EC50 THP1 (C.L. 95 %)
  EC50: 0.693 µM
THP1 cells; lower than MEDS433, THP1 apoptosis
  antileukemic activity relative to MEDS433: ~10 fold
THP1 cells; uridine 100 μM, compound 1 µM, THP-1, 3 days
  pro-apoptotic activity after adding exogenous uridine: completely reversed
HCT-8 cells [1]
  co-localization with Red-MitoTracker: localize into mitochondria
[2]
  CC50 at 72 h: 7 µM
[3]; PBS, polar protic solvent
  emission in PBS solution: completely quenched
[3]; TRIS buffer (pH 8), conditions of the enzymatic assay, no protein
  emission in TRIS buffer: absence of emission
[3]; in ACN
  Lifetime: <1 ns
  QY (luminescence quantum yield): 0.12
  Stokes shift: 4174 cm^–1
  λabs: 442 nm
  λem: 535 nm and 542 nm
[4]
  fluorescence in the presence of an unrelated GST-conjugated protein: no restoration of fluorescence
[5]
  CC50 at 72 h: 301 ± 9 µM
HCT-8 cells [6]
  CC50: 301 ± 8.97 µM
THP-1 cells
  colocalization signal with the mitochondria in the presence of Bay2402234: decreased slightly but statistically significantly
